“Also recorded” adds a separate entry of the source. Read-outs that look alike come from different tables or passages of the source. Marks after values point to notes of the source that are not given here.
Columns and labels:
hCB1R [1] = target: T1, hCB1R (Homo sapiens, UniProt P21554); experiment: cell-based; settings: for Emax: CHO, read-out: hCB1R Emax, recruitment of βarrestin2
T1 construct: expressed in transfected cells; membranes

hCB1R [2] = target: T1, hCB1R; experiment: Ligand bias between cAMP inhibition and βarrestin2 recruitment at hCB1R (operational model); format: cell-based; settings: ∆∆LogR > 0 bias for inhibition of cAMP, < 0 bias for βarrestin2; CP55,940 reference agonist
Method: (§1) Figure 8 Analysis of ligand bias for phytocannabinoids at hCB1R (a) and hCB2R (b).
(§2) Concentration–response curves (CRC) were fit using non-linear regression with variable slope (4 parameters) and used to calculate EC50, Emin, and Emax (GraphPad, Prism, v. 8.0). […] In vivo data are presented as % MPE for catalepsy (MPE = 60 s) and anti-nociception (MPE = 20 s), °C for body temperature, and distance travelled (m) and % time in the centre quadrant in 5 min for OFT. Post-hoc analyses were performed using Tukey’s (one-way ANOVA) test. Homogeneity of variance was confirmed using Bartlett’s test. All data were evaluated for possible outliers using Grubb’s test in GraphPad.

C57BL/6 mice [3] = experiment: Nociception in the tail flick assay (tetrad); format: in vivo
Method: (§3) Asterisk colour matches the treatment group assessed.
as §2

hCB1R [4] = target: T1, hCB1R; experiment: cell-based; format: cell-based; settings: for Emax: CHO, read-out: hCB1R Emax, inhibition of FSK-stimulated cAMP accumulation
hCB2R [5] = target: T2, hCB2R (Homo sapiens, UniProt P34972); experiment: Ligand bias between cAMP inhibition and βarrestin2 recruitment at hCB2R (operational model); format: cell-based; design: expressed in transfected cells; membranes; settings: ∆∆LogR > 0 bias for inhibition of cAMP, < 0 bias for βarrestin2; CP55,940 reference agonist
Method: as §1, §2

hCB2R [6] = target: T2, hCB2R; experiment: [^3H]CP55,940 displacement from hCB2R CHO cell membranes; settings: for hCB2R Emin: bottom of the concentration–response curve of [^3H]CP55,940 displacement, %CP55,940 response, mean ± SEM; for extent of [^3H]CP55,940 displacement from hCB2R, in words: concentration range 0.1 nM–10 µM
hCB1R [7] = target: T1, hCB1R; experiment: biochemical; format: binding
C57BL/6 mice [8] = experiment: Locomotion in the open field test (OFT); format: in vivo
Method: as §3, §2

hCB2R [9] = target: T2, hCB2R; experiment: hCB2R-dependent inhibition of FSK-stimulated cAMP accumulation (HitHunter CHO cells); format: cell-based; design: expressed in transfected cells; membranes; settings: for Emax: CHO; for agonist activity in hCB2R cAMP inhibition, in words: 0.1 nM–10 µM, relative to CP55,940
hCB2R [10] = target: T2, hCB2R; experiment: hCB2R-dependent recruitment of βarrestin2 (PathHunter CHO cells); format: cell-based; design: expressed in transfected cells; membranes; settings: for Emax: CHO; for activity in hCB2R βarrestin2 recruitment, in words: 0.1 nM–10 µM, relative to CP55,940
C57BL/6 mice [11] = experiment: Tetrad of assays, overall; settings: between 1 and 10 mg/kg
hCB2R [12] = target: T2, hCB2R; experiment: biochemical
C57BL/6 mice [13] = experiment: Body temperature (tetrad); format: in vivo
Method: as §3, §2

C57BL/6 mice [14] = experiment: Catalepsy in the ring holding assay (tetrad); format: in vivo; settings: MPE 60 s = 100%
Method: as §3, §2

C57BL/6 mice [15] = experiment: Time in the centre quadrant of the OFT (anxiety-like behaviour); format: in vivo; settings: 1 h post-injection
Method: as §3, §2

[16] = PathHunter CHO hCB1R cells, 90 min, 95% CI in brackets, read-out: hCB1R EC50, recruitment of βarrestin2
[17] = HitHunter CHO hCB1R cells, 90 min, 95% CI in brackets, read-out: hCB1R EC50, inhibition of FSK-stimulated cAMP accumulation
[18] = 10 mg/kg i.p., 1 h post-injection
[19] = HitHunter CHO hCB2R cells, 90 min, 95% CI in brackets, read-out: hCB2R EC50, inhibition of FSK-stimulated cAMP accumulation
[20] = PathHunter CHO hCB2R cells, 90 min, 95% CI in brackets, read-out: hCB2R EC50, recruitment of βarrestin2
[21] = dose range 0.1–10 mg/kg i.p., 15 min post-injection

T1 sequence (P21554 whole entry): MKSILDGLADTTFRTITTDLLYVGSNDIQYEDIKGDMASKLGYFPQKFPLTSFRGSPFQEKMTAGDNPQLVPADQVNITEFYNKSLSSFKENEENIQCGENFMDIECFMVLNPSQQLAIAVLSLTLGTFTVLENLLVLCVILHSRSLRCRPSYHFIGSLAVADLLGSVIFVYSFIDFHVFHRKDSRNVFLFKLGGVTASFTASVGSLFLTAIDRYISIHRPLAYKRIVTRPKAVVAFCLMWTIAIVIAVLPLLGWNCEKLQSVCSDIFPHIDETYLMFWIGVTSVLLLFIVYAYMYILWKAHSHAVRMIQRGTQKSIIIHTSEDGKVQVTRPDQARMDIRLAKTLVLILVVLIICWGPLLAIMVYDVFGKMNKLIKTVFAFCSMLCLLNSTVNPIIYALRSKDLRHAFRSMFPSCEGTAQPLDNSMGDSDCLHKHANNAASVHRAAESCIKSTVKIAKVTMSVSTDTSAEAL
T2 sequence (P34972 whole entry): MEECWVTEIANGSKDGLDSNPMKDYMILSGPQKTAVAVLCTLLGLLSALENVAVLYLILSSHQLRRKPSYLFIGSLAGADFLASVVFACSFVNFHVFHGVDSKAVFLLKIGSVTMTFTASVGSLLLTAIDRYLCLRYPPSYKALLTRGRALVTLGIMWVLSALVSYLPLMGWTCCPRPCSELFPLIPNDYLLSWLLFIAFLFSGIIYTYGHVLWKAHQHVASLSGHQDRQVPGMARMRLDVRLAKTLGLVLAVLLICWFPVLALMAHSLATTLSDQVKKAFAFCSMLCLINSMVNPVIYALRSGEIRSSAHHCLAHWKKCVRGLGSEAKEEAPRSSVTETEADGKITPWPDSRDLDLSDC

Row | Compound | Emax (hCB1R [1]) | EC50 (hCB1R [1]; [16]) | ligand bias at hCB1R (∆∆LogR), in words (hCB1R [2]) | Emax (hCB1R [4]) | EC50 (hCB1R [4]; [17]) | ligand bias at hCB2R (∆∆LogR), in words (hCB2R [5]) | hCB2R Emin (hCB2R [6]) | extent of [^3H]CP55,940 displacement from hCB2R, in words (hCB2R [6]) | Ki (hCB1R [7]) | extent of [^3H]CP55,940 displacement from hCB1R, in words (hCB1R [7]) | hCB1R Emin (hCB1R [7]) | Emax (hCB2R [9]) | Emax (hCB2R [10]) | activity in hCB2R βarrestin2 recruitment, in words (hCB2R [10]) | Ki (hCB2R [12]) | anti-nociceptive effect (tail flick latency), in words (C57BL/6 mice [3]; [21]) | other results
1 | CCCCCc1cc(O)c2c(c1)OC(C)(CCC=C(C)C)C=C2 (centres unmarked) [CBC, cannabichromene] | 6.9 ± 0.96% | > 10 µM | bias for the inhibition of cAMP relative to βarrestin2 | 68 ± 9.7% | 190 nM | bias for inhibition of cAMP relative to βarrestin2 | 9.7 ± 5.9 % | displaced [^3H]CP55,940 from hCB2R to an extent that was not different from CP55,940 | 11 nM | partially displaced | 55 ± 3.7*^ % | 76 ± 5.4% | 12 ± 2.8% |  |  |  | anti-nociceptive effect (tail flick latency), in words (C57BL/6 mice [3]; 3 mg/kg i.p., 15 min post-injection): weak anti-nociceptive effect; total locomotion in the OFT, in words (C57BL/6 mice [8]; [18]): Hypolocomotive responses; EC50 (hCB2R [9]; [19]): 7.1 nM; EC50 (hCB2R [10]; [20]): > 10 µM
2 | C=C(C)[C@@H]1CCC(C)=C[C@H]1c1c(O)cc(CCCCC)cc1O [CBD, cannabidiol, reference compound] | 1 ± 1.6% |  |  | 26 ± 1.6% |  |  | 54 ± 9.3*^ % |  |  | weakly displaced [^3H]CP55,940 at concentrations ≥ 1 µM |  | 61 ± 2.3% | 23 ± 2.8% | modest agonist activity |  |  | effects in the tetrad of assays, in words (C57BL/6 mice [11]): no effects
3 | C=C(C)[C@@H]1CCC(C)=C[C@H]1c1c(O)cc(CCCCC)c(C(=O)O)c1O [CBDa, cannabidiolic acid] | 0.1 ± 0.11% | > 10 µM | bias for the inhibition of cAMP relative to βarrestin2 | 22 ± 1.1% | 30 nM | bias for inhibition of cAMP relative to βarrestin2 | 30 ± 7.8 % | displaced [^3H]CP55,940 from hCB2R to an extent that was not different from CP55,940 | > 10000 nM | weakly displaced [^3H]CP55,940 at concentrations ≥ 1 µM | 96 ± 6.5*^ % | 32 ± 4.2% | 18 ± 2.5% |  | 12 nM |  | total locomotion in the OFT, in words (C57BL/6 mice [8]; [18]): Hypolocomotive responses; EC50 (hCB2R [9]; [19]): 140 nM; EC50 (hCB2R [10]; [20]): > 10 µM
4 | CCCCCCC(C)(C)c1ccc([C@@H]2C[C@H](O)CC[C@H]2CCCO)c(O)c1 [CP55,940, reference compound] |  |  |  |  |  |  | 0.0 ± 6.2% |  |  |  | 0.0 ± 5.2% |  |  |  |  |  | anti-nociceptive effect (tail flick latency), in words (C57BL/6 mice [3]; 0.1 mg/kg i.p., 15 min post-injection): anti-nociceptive effects; effect on body temperature, in words (C57BL/6 mice [13]; 0.1 mg/kg i.p.): decreased body temperature; total locomotion in the OFT, in words (C57BL/6 mice [8]; 0.1 mg/kg i.p., 1 h post-injection): reduced total locomotion; cataleptic response, % of maximum possible effect (MPE) (C57BL/6 mice [14]; 0.1 mg/kg i.p.): 25%
5 | CCCc1cc(O)c2c(c1)OC(C)(C)[C@@H]1CCC(C)=C[C@@H]21 [THCV, ∆^9-tetrahydrocannabivarin] | 0.05 ± 2.1% | > 10 µM |  | 59 ± 3.9% | 260 nM |  | 27 ± 9.5% | displaced [^3H]CP55,940 from hCB2R to an extent that was not different from CP55,940 | 22 nM | partially displaced | 54 ± 4.1*^ % | 79 ± 1.3% | 50 ± 6.8% | demonstrable efficacy at hCB2R in the βarrestin2 recruitment assay, but with very low potency; also recorded: agonist | 47 nM | dose-dependent increase in anti-nociceptive effects | time in the central quadrant of the OFT (modelled anxiolytic effect), in words (C57BL/6 mice [15]; 3 and 10 mg/kg i.p.): anxiolytic; anti-nociceptive effect (tail flick latency), in words (C57BL/6 mice [3]; 3 and 10 mg/kg i.p.): anti-nociceptive; agonist activity in hCB1R cAMP inhibition, in words (hCB1R [4]): weak partial agonist response; effect on body temperature, in words (C57BL/6 mice [13]; 10 mg/kg i.p.): decreased body temperature; also recorded: hypothermic; total locomotion in the OFT, in words (C57BL/6 mice [8]; 3 and 10 mg/kg i.p.): hypolocomotive; EC50 (hCB2R [9]): 280 nM; agonist activity in hCB2R cAMP inhibition, in words (hCB2R [9]): agonist; cataleptic response, % of maximum possible effect (MPE) (C57BL/6 mice [14]; 10 mg/kg i.p.): 39%; EC50 (hCB2R [10]): > 10 µM
6 | CCCCCc1cc(O)c2c(c1)OC(C)(C)[C@@H]1CCC(C)=C[C@@H]21 [∆^9-THC, ∆^9-tetrahydrocannabinol, reference compound] |  |  |  |  |  | bias for inhibition of cAMP relative to βarrestin2 | 7.4 ± 4.4% | displaced [^3H]CP55,940 from hCB2R to an extent that was not different from CP55,940 |  |  |  | 76 ± 8.6% | 46 ± 4.9% | modest agonist activity |  | dose-dependent increase in anti-nociceptive effects | effect on body temperature, in words (C57BL/6 mice [13]; 3 and 10 mg/kg i.p.): decreased body temperature; cataleptic response, % of maximum possible effect (MPE) (C57BL/6 mice [14]; 3 mg/kg i.p.): 17%; cataleptic response, % of maximum possible effect (MPE) (C57BL/6 mice [14]; 10 mg/kg i.p.): 100%
7 | CCCCCc1cc2c(c(O)c1C(=O)O)[C@@H]1C=C(C)CC[C@H]1C(C)(C)O2 [∆^9-THCa, ∆^9-tetrahydrocannabinolic acid] | 4.1 ± 1.5% |  | bias for the inhibition of cAMP relative to βarrestin2 | 35 ± 11% |  |  | 49 ± 7.2*^ % |  | 620 nM | partially displaced | 67 ± 11*^ % | 95 ± 1.5% | 15 ± 2.5% |  | 1.3 nM | dose-dependent increase in anti-nociceptive effects | time in the central quadrant of the OFT (modelled anxiolytic effect), in words (C57BL/6 mice [15]; 10 mg/kg i.p.): anxiolytic-like effects; EC50 (hCB1R [1]): > 10 µM; anti-nociceptive effect (tail flick latency), in words (C57BL/6 mice [3]; 3 and 10 mg/kg i.p.): anti-nociceptive; EC50 (hCB1R [4]): > 10000 nM; agonist activity in hCB1R cAMP inhibition, in words (hCB1R [4]): weak partial agonist; total locomotion in the OFT, in words (C57BL/6 mice [8]; 3 and 10 mg/kg i.p.): hypolocomotive effects; EC50 (hCB2R [9]): 1800 nM; agonist activity in hCB2R cAMP inhibition, in words (hCB2R [9]): weakly potent agonist; EC50 (hCB2R [10]): > 10 µM

— PMC7684313, “In vitro and in vivo pharmacological activity of minor cannabinoids isolated from Cannabis sativa” (Scientific Reports, 2020)
